According to patent US9416115B2, “Fused heterocyclic compounds as ion channel modulators” (Gilead Sciences, Inc., priority 2013, dated 2016):

Columns and labels:
[1] = biological target: wild-type human cardiac sodium channel, hNav1.5 (Homo sapiens, UniProt Q14524); experiment: Late INa screening assay (QPatch whole cell patch clamp, Tefluthrin-induced late current); assay type: cell-based; conditions: HEK293 hNav1.5, percent block of late INa
Procedure, shortened: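 HEK293 cells stably expressing hNav1.5 without beta subunits were whole-cell patch clamped at 23-25 °C, stepping from −120 to −20 mV for 250 ms at 0.1 Hz. Late current (240–265 ms) was induced with 10 μM Tefluthrin, and compounds were added typically at 0.3 or 1 μM. Percent block was taken against 0 Na baseline with rundown correction.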

hNaV1.2 (SCN2A) = biological target: T1, hNaV1.2 (SCN2A) (Homo sapiens, UniProt Q99250); experiment: Use-dependent inhibition of the CNS Nav1.2 sodium channel; assay type: cell-based; conditions: use-dependent block, 25 Hz, pulse 20, read-out: Nav1.2 UDB 25 Hz 10 uM
T1 construct: expressed in transfected cells
Procedure, shortened: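 Use-dependent block of human Nav1.2 was measured by automated whole-cell patch clamp (QPatch) in HEK-293 cells stably expressing hNaV1.2 with SCN1B and SCN2B. From a holding potential of −120 mV, a train of 20 pulses to 0 mV (20 ms, 25 Hz) was applied. Peak current at pulse 20 was normalized to the first pulse, and percent inhibition was calculated relative to compound-free recordings.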

T1 sequence (Q99250 whole entry): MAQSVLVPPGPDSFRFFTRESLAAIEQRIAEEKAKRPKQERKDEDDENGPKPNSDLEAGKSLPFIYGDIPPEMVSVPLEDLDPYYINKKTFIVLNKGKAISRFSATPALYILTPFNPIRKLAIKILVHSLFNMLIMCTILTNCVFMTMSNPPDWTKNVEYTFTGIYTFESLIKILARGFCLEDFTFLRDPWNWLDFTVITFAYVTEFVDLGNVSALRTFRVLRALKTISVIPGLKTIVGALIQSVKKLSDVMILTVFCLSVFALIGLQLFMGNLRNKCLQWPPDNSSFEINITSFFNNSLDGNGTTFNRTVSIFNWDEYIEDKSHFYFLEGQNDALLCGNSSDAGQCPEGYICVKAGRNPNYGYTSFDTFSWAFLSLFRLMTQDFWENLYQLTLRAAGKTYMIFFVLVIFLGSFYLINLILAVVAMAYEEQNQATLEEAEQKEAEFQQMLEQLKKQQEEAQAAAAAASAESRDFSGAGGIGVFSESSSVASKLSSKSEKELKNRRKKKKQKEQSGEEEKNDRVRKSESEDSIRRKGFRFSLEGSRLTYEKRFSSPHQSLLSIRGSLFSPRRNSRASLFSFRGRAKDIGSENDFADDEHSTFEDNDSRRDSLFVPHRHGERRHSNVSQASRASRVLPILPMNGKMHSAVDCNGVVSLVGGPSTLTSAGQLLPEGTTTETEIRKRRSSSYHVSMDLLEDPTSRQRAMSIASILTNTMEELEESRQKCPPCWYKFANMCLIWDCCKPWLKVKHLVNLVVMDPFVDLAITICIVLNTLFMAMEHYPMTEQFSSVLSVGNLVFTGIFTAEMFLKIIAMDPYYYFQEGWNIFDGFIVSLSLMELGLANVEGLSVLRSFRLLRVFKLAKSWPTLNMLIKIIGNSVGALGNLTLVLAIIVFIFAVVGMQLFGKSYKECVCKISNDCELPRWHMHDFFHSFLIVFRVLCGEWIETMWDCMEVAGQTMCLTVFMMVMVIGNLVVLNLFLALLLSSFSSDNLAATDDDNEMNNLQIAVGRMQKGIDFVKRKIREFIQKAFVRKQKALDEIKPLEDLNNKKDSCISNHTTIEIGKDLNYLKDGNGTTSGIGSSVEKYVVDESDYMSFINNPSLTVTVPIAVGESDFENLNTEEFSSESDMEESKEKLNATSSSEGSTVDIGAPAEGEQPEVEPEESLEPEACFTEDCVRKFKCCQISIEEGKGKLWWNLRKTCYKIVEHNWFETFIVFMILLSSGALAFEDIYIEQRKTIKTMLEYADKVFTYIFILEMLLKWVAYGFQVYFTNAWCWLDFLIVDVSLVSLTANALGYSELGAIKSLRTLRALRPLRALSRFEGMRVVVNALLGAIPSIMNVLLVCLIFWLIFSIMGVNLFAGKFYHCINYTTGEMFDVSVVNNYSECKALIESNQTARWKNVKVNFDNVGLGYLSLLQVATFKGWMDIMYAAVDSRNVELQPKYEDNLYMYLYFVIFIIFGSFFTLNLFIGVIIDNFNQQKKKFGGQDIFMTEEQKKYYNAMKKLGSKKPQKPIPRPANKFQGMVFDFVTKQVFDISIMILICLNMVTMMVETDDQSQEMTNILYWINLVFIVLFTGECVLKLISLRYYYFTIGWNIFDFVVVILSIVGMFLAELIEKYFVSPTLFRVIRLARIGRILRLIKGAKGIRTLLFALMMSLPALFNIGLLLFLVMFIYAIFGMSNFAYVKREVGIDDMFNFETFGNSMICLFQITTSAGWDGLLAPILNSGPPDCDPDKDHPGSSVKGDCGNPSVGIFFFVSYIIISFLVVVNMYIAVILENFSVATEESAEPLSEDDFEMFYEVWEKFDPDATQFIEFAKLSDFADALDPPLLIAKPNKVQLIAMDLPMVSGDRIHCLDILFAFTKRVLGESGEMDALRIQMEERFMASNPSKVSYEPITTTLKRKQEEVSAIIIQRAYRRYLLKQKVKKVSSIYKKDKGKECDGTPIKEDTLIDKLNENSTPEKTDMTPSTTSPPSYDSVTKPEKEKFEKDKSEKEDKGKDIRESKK
T1 sequence (Q07699 19-218 partner): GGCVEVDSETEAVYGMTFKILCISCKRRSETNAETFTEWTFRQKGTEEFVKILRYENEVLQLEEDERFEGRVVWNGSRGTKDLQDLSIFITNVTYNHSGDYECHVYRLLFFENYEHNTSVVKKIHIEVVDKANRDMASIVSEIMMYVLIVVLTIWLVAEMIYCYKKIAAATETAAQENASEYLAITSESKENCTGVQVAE
T1 sequence (O60939 30-215 partner): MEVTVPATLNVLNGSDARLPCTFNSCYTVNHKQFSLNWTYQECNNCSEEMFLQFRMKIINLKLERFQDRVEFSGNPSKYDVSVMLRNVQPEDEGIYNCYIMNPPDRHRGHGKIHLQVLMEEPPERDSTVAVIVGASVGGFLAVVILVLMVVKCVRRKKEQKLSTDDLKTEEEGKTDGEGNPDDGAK
Chain of wild-type human cardiac sodium channel, hNav1.5 (Q14524 whole entry): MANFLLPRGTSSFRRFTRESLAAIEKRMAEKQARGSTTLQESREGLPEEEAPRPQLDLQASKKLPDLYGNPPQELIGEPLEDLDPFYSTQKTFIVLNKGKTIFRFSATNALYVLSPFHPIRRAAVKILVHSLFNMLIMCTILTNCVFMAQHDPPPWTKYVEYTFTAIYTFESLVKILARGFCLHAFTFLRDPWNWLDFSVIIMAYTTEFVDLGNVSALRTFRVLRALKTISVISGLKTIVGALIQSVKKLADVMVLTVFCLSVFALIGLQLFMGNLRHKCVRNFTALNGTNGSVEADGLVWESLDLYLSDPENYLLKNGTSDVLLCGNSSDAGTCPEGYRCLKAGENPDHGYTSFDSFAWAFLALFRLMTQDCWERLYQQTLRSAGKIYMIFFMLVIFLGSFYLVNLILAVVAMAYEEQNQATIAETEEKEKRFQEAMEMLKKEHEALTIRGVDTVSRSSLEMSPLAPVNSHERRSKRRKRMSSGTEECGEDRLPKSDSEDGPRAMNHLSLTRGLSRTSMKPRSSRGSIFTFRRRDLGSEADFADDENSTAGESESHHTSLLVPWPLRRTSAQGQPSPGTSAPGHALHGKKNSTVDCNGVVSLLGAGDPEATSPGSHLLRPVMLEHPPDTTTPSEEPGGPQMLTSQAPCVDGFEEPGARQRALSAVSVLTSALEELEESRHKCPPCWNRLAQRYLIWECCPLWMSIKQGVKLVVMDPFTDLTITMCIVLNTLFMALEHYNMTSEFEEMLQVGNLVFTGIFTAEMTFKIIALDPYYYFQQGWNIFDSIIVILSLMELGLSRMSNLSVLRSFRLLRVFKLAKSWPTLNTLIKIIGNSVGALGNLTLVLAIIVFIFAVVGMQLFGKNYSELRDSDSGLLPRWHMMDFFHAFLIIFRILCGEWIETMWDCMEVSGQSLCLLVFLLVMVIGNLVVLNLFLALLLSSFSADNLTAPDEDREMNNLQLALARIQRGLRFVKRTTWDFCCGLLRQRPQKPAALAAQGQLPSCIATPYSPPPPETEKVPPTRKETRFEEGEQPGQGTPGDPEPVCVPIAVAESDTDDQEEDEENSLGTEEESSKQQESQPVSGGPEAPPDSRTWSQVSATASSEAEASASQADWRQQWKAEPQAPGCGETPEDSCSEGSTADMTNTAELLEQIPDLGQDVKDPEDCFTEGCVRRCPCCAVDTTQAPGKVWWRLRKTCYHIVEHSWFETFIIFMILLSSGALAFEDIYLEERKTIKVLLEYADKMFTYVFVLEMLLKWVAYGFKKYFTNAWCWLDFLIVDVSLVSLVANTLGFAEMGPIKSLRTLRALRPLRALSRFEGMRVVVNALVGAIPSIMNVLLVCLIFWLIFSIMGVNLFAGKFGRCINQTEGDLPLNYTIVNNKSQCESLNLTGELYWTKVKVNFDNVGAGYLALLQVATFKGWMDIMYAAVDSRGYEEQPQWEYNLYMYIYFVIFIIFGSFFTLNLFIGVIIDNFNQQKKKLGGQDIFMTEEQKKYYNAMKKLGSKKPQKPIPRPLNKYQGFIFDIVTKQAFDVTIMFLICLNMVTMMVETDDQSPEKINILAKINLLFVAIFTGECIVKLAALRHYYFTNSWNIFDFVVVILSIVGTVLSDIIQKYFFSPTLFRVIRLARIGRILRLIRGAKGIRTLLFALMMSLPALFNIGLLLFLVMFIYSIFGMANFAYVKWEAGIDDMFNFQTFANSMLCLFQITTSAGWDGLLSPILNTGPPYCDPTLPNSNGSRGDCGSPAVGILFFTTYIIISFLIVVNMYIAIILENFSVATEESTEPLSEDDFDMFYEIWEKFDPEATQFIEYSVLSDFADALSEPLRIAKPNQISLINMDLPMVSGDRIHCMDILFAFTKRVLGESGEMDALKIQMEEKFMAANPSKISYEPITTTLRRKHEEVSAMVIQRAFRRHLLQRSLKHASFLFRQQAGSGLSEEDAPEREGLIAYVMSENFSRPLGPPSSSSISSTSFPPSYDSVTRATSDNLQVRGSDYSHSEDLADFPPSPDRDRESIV

Row | Structure (SMILES) | inhibition at 0.3 µM [1] | inhibition at 1 µM [1] | inhibition at 10 µM (hNaV1.2 (SCN2A))
1 | O=C1CCCN1CCNc1noc2ccc(-c3ccc(OC(F)(F)F)cc3)cc12 [Example 135, 1-(2-((5-(4-(trifluoromethoxy)phenyl)benzo[d]isoxazol-3-yl)amino)ethyl)pyrrolidin-2-one] | 19.7% | 48.8% | 76.5%
2 | FC(F)(F)Oc1ccc(-c2ccc3onc(-n4cncn4)c3c2)cc1 [Example 136, 3-(1H-1,2,4-triazol-1-yl)-5-(4-(trifluoromethoxy)phenyl)benzo[d]isoxazole] | – | 44.8% | < 5%
3 | FC(F)(F)Oc1ccc(-c2ccc3onc(NCCn4cncn4)c3c2)cc1 [Example 137, N-(2-(1H-1,2,4-triazol-1-yl)ethyl)-5-(4-(trifluoromethoxy)phenyl)benzo[d]isoxazol-3-amine] | – | 47.2% | 86%
4 | Cc1cn(-c2noc3ccc(-c4ccc(OC(F)(F)F)cc4)cc23)cn1 [Example 139, 3-(4-methyl-1H-imidazol-1-yl)-5-(4-(trifluoromethoxy)phenyl)benzo[d]isoxazole] | – | 41.2% | 26.1%
5 | FC(F)(F)Oc1ccc(-c2ccc3onc(-n4cnc(Cl)c4)c3c2)cc1 [Example 140, 3-(4-chloro-1H-imidazol-1-yl)-5-(4-(trifluoromethoxy)phenyl)benzo[d]isoxazole] | – | 37.6% | < 5%
6 | Cc1ncn(-c2noc3ccc(-c4ccc(OC(F)(F)F)cc4)cc23)n1 [Example 141, 3-(3-methyl-1H-1,2,4-triazol-1-yl)-5-(4-(trifluoromethoxy)phenyl)benzo[d]isoxazole] | – | 38.6% | 19.9%
7 | FC(F)(F)Oc1ccc(-c2ccc3onc(-n4cnc(-c5ccccc5)c4)c3c2)cc1 [Example 142, 3-(4-phenyl-1H-imidazol-1-yl)-5-(4-(trifluoromethoxy)phenyl)benzo[d]isoxazole] | – | 44% | 65%
8 | CC(C)(C)c1cn(-c2noc3ccc(-c4ccc(OC(F)(F)F)cc4)cc23)cn1 [Example 143, 3-(4-(tert-butyl)-1H-imidazol-1-yl)-5-(4-(trifluoromethoxy)phenyl)benzo[d]isoxazole] | 35.9% | 60.3% | 57.1%
9 | CC(C)c1nccn1-c1noc2ccc(-c3ccc(OC(F)(F)F)cc3)cc12 [Example 144, 3-(2-isopropyl-1H-imidazol-1-yl)-5-(4-(trifluoromethoxy)phenyl)benzo[d]isoxazole] | 25.9% | 55.7% | 75.8%
10 | FC(F)(F)Oc1ccc(-c2ccc3onc(-n4cnc(C(F)(F)F)c4)c3c2)cc1 [Example 145, 5-(4-(trifluoromethoxy)phenyl)-3-(4-(trifluoromethyl)-1H-imidazol-1-yl)benzo[d]isoxazole] | 61.7% | 84.9% | 75.8%
11 | OCc1cn(-c2noc3ccc(-c4ccc(OC(F)(F)F)cc4)cc23)cn1 [Example 146, (1-(5-(4-(trifluoromethoxy)phenyl)benzo[d]isoxazol-3-yl)-1H-imidazol-4-yl)methanol] | – | 48.4% | 75.8%
12 | Nc1noc2ccc(-c3ccc(OC(F)(F)F)cc3)cc12 [Example 147, 5-(4-(trifluoromethoxy)phenyl)benzo[d]isoxazol-3-amine] | – | 45.4% | 20.4%
13 | COc1ccnc(CNc2noc3ccc(-c4ccc(OC(F)(F)F)cc4)cc23)n1 [Example 149, N-((4-methoxypyrimidin-2-yl)methyl)-5-(4-(trifluoromethoxy)phenyl)benzo[d]isoxazol-3-amine] | 50.9% | 87.6% | 44.4%
14 | CCN(CC)C(=O)COc1noc2ccc(-c3ccc(OC(F)(F)F)cc3)cc12 [Example 150, N,N-diethyl-2-((5-(4-(trifluoromethoxy)phenyl)benzo[d]isoxazol-3-yl)oxy)acetamide] | 49.4% | 68.2% | 51%
15 | FC(F)(F)Oc1ccc(-c2ccc3onc(OCc4cnccn4)c3c2)cc1 [Example 151, 3-(pyrazin-2-ylmethoxy)-5-(4-(trifluoromethoxy)phenyl)benzo[d]isoxazole] | 50.7% | 70.1% | 18.6%
16 | Cc1nccnc1COc1noc2ccc(-c3ccc(OC(F)(F)F)cc3)cc12 [Example 152, 3-((3-methylpyrazin-2-yl)methoxy)-5-(4-(trifluoromethoxy)phenyl)benzo[d]isoxazole] | 19.8% | 53.4% | 13.8%
17 | Cc1nnc(C(C)Oc2noc3ccc(-c4ccc(OC(F)(F)F)cc4)cc23)o1 (centres unmarked) [Example 153, 3-(1-(5-methyl-1,3,4-oxadiazol-2-yl)ethoxy)-5-(4-(trifluoromethoxy)phenyl)benzo[d]isoxazole] | 51.3% | 67.6% | 53.7%
18 | FC(F)(F)Oc1ccc(-c2ccc3onc(OCc4nnc(C5CC5)s4)c3c2)cc1 [Example 154, 3-((5-cyclopropyl-1,3,4-thiadiazol-2-yl)methoxy)-5-(4-(trifluoromethoxy)phenyl)benzo[d]isoxazole] | – | 39.2% | 27%
19 | Cc1nnc(COc2noc3c(F)cc(-c4ccc(OC(F)(F)F)cc4)cc23)o1 [Example 155, 7-fluoro-3-((5-methyl-1,3,4-oxadiazol-2-yl)methoxy)-5-(4-(trifluoromethoxy)phenyl)benzo[d]isoxazole] | 47% | 69.2% | 58.6%
20 | FC(F)(F)Oc1ccc(-c2ccc3onc(NCc4ncco4)c3c2)cc1 [Example 156, N-(oxazol-2-ylmethyl)-5-(4-(trifluoromethoxy)phenyl)benzo[d]isoxazol-3-amine] | 37.9% | 62.8% | 10.6%
21 | CC(C)(C)OC(=O)COc1noc2ccc(-c3ccc(OC(F)(F)F)cc3)cc12 [Example 157, tert-butyl 2-((5-(4-(trifluoromethoxy)phenyl)benzo[d]isoxazol-3-yl)oxy)acetate] | – | 36.9% | < 5%
